Laboratory results from patent US10947213B1 (Merck Patent GmbH, priority 2015, dated 2021).
Structures can show the parent of a compound that is named as a salt.

What follows are compounds tested against T1, TLR7/NFKb HEK cells (Homo sapiens, UniProt Q9NYK1) (assay: HEK Cell Assay (TLR7/NFKb reporter, Steady-Glo luciferase readout)). Settings: 30 min compound preincubation, then R*48 agonist for 5 hours, read-out: Potency.
T1 construct: expressed in transfected cells; host or cells: HEK cells (TLR7/NFKb reporter line)
T1 sequence (Q9NYK1 27-1049): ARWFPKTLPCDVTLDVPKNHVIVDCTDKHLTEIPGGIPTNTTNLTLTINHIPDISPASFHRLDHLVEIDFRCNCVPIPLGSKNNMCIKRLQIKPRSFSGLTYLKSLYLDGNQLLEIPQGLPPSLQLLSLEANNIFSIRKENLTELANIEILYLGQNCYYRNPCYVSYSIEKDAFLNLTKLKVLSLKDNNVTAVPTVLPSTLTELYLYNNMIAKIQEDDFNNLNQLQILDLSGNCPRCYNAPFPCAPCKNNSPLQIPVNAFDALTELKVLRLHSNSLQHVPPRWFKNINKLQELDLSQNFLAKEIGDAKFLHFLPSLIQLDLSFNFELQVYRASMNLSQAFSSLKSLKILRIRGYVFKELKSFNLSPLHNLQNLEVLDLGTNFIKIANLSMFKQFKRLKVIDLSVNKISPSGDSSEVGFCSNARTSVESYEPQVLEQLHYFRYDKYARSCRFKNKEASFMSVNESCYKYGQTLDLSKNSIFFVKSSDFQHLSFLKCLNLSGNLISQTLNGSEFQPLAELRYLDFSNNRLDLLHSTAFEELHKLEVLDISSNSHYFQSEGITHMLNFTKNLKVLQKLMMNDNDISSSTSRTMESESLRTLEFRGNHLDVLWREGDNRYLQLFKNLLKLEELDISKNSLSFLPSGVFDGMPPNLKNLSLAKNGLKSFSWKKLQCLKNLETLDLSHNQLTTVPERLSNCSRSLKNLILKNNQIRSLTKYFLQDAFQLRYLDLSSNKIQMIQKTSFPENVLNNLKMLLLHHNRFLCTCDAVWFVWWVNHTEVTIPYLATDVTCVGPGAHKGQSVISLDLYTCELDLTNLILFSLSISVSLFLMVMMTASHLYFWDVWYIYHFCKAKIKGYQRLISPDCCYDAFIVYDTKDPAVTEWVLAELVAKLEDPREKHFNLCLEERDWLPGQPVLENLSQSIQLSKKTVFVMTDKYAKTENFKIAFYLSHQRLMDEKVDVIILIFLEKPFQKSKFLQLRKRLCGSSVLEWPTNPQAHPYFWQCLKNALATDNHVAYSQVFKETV
Type: cell-based
How it was run: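 Steady-Glo luminescence after 5 h stimulation with R*48 agonist, following 30 min compound preincubation. Assay run in HEK cells carrying a TLR7/NFKb luciferase reporter, plated at 5000 cells/well and grown 24 h at 37° C (10% CO2) before treatment.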

SMILES | IC50 [nM]
CC1(C)CCN(CC(=O)N[C@@H]2C[C@H](C(F)(F)F)CN(c3ccc(C#N)c4ncccc34)C2)C1 [Compound 577, N-[(3R,5S)-1-(8-Cyano-quinolin-5-yl)-5-trifluoromethyl-piperidin-3-yl]-2-(3,3-dimethyl-pyrrolidin-1-yl)-acetamide] | < 1000
N#Cc1ccc(N2C[C@H](NC(=O)C3CCN(C4CC4)CC3)C[C@H](C(F)(F)F)C2)c2cccnc12 [Compound 578, 1-Cyclopropyl-piperidine-4-carboxylic acid [(3R,5S)-1-(8-cyano-quinolin-5-yl)-5-trifluoromethyl-piperidin-3-yl]-amide] | < 1000
CCN(CC)C(=O)CCC(=O)N[C@@H]1C[C@H](C(F)(F)F)CN(c2ccc(C#N)c3ncccc23)C1 [Compound 579, N-[(3R,5S)-1-(8-Cyano-quinolin-5-yl)-5-trifluoromethyl-piperidin-3-yl]-N′,N′-diethyl-succinamide] | 1000 to 10000
N#Cc1ccc(N2C[C@H](NC(=O)NCC3CC(F)(F)C3)C[C@H](C(F)(F)F)C2)c2cccnc12 [Compound 580, 1-[(3R,5S)-1-(8-Cyano-quinolin-5-yl)-5-trifluoromethyl-piperidin-3-yl]-3-(3,3-difluoro-cyclobutylmethyl)-urea] | 1000 to 10000
N#Cc1ccc(N2C[C@H](NC(=O)N3C[C@@H](F)[C@@H](F)C3)C[C@H](C(F)(F)F)C2)c2cccnc12 [Compound 581, (3R,4S)-3,4-Difluoro-pyrrolidine-1-carboxylic Acid [(3R,5S)-1-(8-cyano-quinolin-5-yl)-5-trifluoromethyl-piperidin-3-yl]-amide] | 1000 to 10000
C[C@H]1C[C@@H](NC(=O)NCC2CC(F)(F)C2)CN(c2ccc(C(F)(F)F)c3ncccc23)C1 [Compound 582, 1-(3,3-Difluoro-cyclobutylmethyl)-3-[(3R,5S)-5-methyl-1-(8-trifluoromethyl-quinolin-5-yl)-piperidin-3-yl]-urea] | 1000 to 10000
C[C@H]1C[C@@H](NC(=O)N2C[C@@H](F)[C@@H](F)C2)CN(c2ccc(C(F)(F)F)c3ncccc23)C1 [Compound 583, (3R,4S)-3,4-Difluoro-pyrrolidine-1-carboxylic Acid [(3R,5S)-5-methyl-1-(8-trifluoromethyl-quinolin-5-yl)-piperidin-3-yl]-amide] | 1000 to 10000
N#Cc1ccc(N2C[C@H](NC(=O)CC3CCC(F)(F)CC3)C[C@H](C(F)(F)F)C2)c2cccnc12 [Compound 584, N-[(3R,5S)-1-(8-Cyano-quinolin-5-yl)-5-trifluoromethyl-piperidin-3-yl]-2-(4,4-difluoro-cyclohexyl)-acetamide] | < 1000
CC(C)N1CCC(CC(=O)N[C@@H]2C[C@H](C(F)(F)F)CN(c3ccc(C#N)c4ncccc34)C2)CC1 [Compound 585, N-[(3R,5S)-1-(8-Cyano-quinolin-5-yl)-5-trifluoromethyl-piperidin-3-yl]-2-(1-isopropyl-piperidin-4-yl)-acetamide] | < 1000
Cc1ccc(N2C[C@H](N)C[C@H](C(F)(F)F)C2)c2cccnc12 [Compound 586, (3R,5S)-1-(8-Methyl-quinolin-5-yl)-5-trifluoromethyl-piperidin-3-ylamine hydrochloride] | < 1000
